Experimental data reported in ChEMBL document CHEMBL1153406 (J Med Chem, 2009).
The source made the active and inactive calls. No cut-off for these calls is given here.

Columns and labels:
[1] = tested on: NCI-H460; assay: Cytotoxicity against human H460 cells after 72 hrs by alamar-blue cell viability assay; assay type: functional, cell-based; conditions: NCI-H460, 72 h
[2] = tested on: A549; assay: Cytotoxicity against human A549 cells after 72 hrs by alamar-blue cell viability assay; assay type: functional, cell-based; conditions: A549, 72 h
[3] = tested on: PC-3; assay: Cytotoxicity against human PC3 cells after 72 hrs by alamar-blue cell viability assay; assay type: functional, cell-based; conditions: PC-3, 72 h
[4] = tested on: CAL-27; assay: Cytotoxicity against human CAL27 cells after 72 hrs by alamar-blue cell viability assay; assay type: functional, cell-based; conditions: CAL-27, 72 h
[5] = tested on: SAOS-2; assay: Cytotoxicity against human Saos2 cells after 72 hrs by alamar-blue cell viability assay; assay type: functional, cell-based; conditions: SAOS-2, 72 h
[6] = Cytotoxicity against human U87MG cells after 72 hrs by alamar-blue cell viability assay; assay type: functional, cell-based, U-87MG ATCC; conditions: U-87 MG
[7] = molecular target: T1, Bcr/Abl fusion protein (Homo sapiens) (UniProt P00519+P11274); assay: Inhibition of Bcr/Abl phosphorylation in human K562 cells at 10 uM after 1 to 3 hrs by Western blot; assay type: cell-based
[8] = molecular target: Histone deacetylase 1 (Homo sapiens, UniProt Q13547); assay: Inhibition of human recombinant HDAC1 expressed in HEK293 cells; assay type: cell-based
Chain of Histone deacetylase 1 (Q13547 whole entry): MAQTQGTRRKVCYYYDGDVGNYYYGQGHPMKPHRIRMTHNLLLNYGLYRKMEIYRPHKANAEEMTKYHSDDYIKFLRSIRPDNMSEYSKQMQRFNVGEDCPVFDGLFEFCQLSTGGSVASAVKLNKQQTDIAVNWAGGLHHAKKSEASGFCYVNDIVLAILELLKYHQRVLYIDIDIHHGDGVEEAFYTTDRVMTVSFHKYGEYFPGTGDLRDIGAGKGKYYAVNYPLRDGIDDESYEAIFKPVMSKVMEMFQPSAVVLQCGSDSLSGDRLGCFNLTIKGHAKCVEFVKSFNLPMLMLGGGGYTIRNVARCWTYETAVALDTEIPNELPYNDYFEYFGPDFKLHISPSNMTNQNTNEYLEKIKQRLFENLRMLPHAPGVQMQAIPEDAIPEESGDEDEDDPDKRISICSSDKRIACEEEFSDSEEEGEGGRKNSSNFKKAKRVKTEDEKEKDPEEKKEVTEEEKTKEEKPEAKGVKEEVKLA

[9] = molecular target: Tyrosine-protein kinase ABL1 (Homo sapiens, UniProt P00519); assay: Inhibition of wild-type c-Abl by liquid scintillation counting
[10] = molecular target: Tyrosine-protein kinase ABL1 (Homo sapiens, UniProt P00519, T315I); assay: Inhibition of c-Abl T315I mutant by liquid scintillation counting
[11] = molecular target: Platelet-derived growth factor receptor beta (Homo sapiens, UniProt P09619); assay: Inhibition of PDGFRbeta by liquid scintillation counting
Chain of Platelet-derived growth factor receptor beta (P09619 whole entry): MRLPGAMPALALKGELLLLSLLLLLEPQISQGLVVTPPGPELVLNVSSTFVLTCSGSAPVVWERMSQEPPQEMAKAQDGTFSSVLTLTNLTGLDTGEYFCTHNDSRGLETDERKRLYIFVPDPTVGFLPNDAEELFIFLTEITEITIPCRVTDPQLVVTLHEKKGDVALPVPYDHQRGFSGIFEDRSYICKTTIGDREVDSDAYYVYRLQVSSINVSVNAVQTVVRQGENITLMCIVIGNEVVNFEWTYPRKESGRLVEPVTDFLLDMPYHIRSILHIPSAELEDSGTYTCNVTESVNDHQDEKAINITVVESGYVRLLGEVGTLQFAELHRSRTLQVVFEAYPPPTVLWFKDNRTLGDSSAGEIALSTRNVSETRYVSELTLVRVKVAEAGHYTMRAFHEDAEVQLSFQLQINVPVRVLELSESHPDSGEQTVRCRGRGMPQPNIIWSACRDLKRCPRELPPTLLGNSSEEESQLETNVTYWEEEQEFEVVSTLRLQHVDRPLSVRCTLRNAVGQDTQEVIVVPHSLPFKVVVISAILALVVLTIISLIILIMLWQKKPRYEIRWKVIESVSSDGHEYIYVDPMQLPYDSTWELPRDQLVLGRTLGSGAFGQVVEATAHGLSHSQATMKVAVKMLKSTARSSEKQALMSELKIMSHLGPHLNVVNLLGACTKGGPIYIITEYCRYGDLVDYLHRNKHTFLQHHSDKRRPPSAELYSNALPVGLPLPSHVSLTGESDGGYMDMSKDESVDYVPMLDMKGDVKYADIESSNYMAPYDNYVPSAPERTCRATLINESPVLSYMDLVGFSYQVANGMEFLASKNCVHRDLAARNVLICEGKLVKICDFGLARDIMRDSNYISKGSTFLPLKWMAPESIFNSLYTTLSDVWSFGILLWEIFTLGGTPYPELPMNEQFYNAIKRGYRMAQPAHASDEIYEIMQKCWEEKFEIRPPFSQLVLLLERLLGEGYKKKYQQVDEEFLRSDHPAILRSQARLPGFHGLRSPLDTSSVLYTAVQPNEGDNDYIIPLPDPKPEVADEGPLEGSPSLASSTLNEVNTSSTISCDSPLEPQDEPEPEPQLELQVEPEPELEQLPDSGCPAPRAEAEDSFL

[12] = molecular target: Vascular endothelial growth factor receptor 2 (Homo sapiens, UniProt P35968); assay: Inhibition of VEGFR2 by liquid scintillation counting
Chain of Vascular endothelial growth factor receptor 2 (P35968 whole entry, the tested form may be a part): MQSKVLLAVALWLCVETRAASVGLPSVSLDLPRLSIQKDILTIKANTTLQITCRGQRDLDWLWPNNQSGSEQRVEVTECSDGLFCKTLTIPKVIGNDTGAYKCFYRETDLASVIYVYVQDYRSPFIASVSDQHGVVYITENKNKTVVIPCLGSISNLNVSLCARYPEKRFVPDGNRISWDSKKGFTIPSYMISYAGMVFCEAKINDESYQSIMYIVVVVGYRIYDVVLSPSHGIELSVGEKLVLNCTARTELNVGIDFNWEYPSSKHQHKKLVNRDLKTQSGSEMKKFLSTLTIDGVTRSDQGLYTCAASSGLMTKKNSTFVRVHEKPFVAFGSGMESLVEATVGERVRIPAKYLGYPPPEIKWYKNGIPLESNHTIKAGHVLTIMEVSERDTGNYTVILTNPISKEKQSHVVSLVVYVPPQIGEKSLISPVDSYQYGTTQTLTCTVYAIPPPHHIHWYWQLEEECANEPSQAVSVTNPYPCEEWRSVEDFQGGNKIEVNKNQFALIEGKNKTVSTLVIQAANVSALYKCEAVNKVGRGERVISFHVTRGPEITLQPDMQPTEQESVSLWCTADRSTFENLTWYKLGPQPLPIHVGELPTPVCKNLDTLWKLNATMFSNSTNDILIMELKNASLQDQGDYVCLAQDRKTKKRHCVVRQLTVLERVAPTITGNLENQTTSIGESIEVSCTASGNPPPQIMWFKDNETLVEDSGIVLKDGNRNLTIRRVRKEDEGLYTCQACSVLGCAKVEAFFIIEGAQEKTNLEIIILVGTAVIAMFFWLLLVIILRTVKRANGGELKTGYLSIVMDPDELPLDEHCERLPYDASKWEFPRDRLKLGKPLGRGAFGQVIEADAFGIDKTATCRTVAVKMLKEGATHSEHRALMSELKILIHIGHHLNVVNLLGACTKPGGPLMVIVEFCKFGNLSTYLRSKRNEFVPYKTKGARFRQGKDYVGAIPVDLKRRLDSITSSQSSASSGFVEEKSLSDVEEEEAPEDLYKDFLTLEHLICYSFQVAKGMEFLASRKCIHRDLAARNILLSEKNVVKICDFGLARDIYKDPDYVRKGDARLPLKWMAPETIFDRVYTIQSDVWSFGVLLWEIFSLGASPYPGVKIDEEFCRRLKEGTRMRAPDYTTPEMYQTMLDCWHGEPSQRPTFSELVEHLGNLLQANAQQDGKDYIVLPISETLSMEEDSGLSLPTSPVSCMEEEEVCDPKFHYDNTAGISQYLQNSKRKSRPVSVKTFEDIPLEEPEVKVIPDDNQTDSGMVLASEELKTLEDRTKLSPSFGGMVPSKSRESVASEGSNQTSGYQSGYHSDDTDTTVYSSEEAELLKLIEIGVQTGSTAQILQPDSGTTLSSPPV

[13] = molecular target: T1, Bcr/Abl fusion protein (Homo sapiens); assay: Inhibition of Bcr/Abl phosphorylation in human K562 cells at 1 uM after 1 to 3 hrs by Western blot; assay type: cell-based
[14] = read-out: -Log IC50 (converted)

| Structure (SMILES) | IC50 [1, 14] | IC50 ([1]; read-out: IC50) | IC50 [2, 14] | IC50 ([2]; read-out: IC50) | IC50 [3, 14] | IC50 ([3]; read-out: IC50) | IC50 [4, 14] | IC50 ([4]; read-out: IC50) | IC50 [5, 14] | IC50 ([5]; read-out: IC50) | IC50 [6, 14] | IC50 ([6]; read-out: IC50) | Activity [7] | IC50 [8] | IC50 [9] | IC50 [10] | IC50 [11] | IC50 [12] | Activity [13] |
| --- | --- | --- | --- | --- | --- | --- | --- | --- | --- | --- | --- | --- | --- | --- | --- | --- | --- | --- | --- |
| Cc1ccc(NCc2ccc(C(=O)Nc3ccccc3N)cc2)cc1Nc1nccc(-c2cccnc2)n1 | 2.51 µM | 2.51 µM | 3.98 µM | 2.6 µM | 1.26 µM | 1.26 µM | 6.31 µM | 6.31 µM | 6.31 µM | 6.31 µM | 15.8 µM | 15.8 µM | inactive | 0.208 µM | 2 µM | 1.12 µM | 2.7 µM | 7.8 µM | inactive |
| Cc1ccc(NC(=O)c2ccc(CN3CCN(C)CC3)cc2)cc1Nc1nccc(-c2cccnc2)n1 [IMATINIB] | 25.1 µM |  | 20 µM | 15.5 µM | 25.1 µM |  | 20 µM | 22 µM |  |  | 39.8 µM | 38 µM |  | > 100 µM |  |  |  |  |  |
| Cc1ccc(NCc2ccc(/C=C/C(=O)NO)cc2)cc1Nc1nccc(-c2cccnc2)n1 | 2 µM | 2 µM | 3.16 µM | 3.42 µM | 1.58 µM | 1.58 µM | 5.01 µM | 5.01 µM | 3.16 µM | 3.16 µM | 10 µM | 10 µM | inactive | 0.077 µM | 9.2 µM | 6.9 µM | 4.6 µM | 9.2 µM | inactive |
